In PubChem BioAssay (NCI) one finds GI50 and TGI data, which are given here for 29 compounds.

Experiment in all cases: NCI tumour cell line growth inhibition, 48 h
The subject of experiment [1] is CAKI-1 renal.
Experiment [2] deals with HCT-116 colon.
Experiment [3] concerns LOX IMVI melanoma.
Experiment [4] concerns NCI-H460 lung.
Experiment [5] deals with OVCAR-3 ovarian.
Experiment [6] concerns RXF 393 renal.
The test system of experiment [7] is SK-OV-3 ovarian.
The test system of experiment [8] is EKVX NSCLC.
In experiment [9] the test system is SK-MEL-2 melanoma.

Values joined by “and” are separate entries in the source; they are usually repeats but may differ in a detail not shown here. Equal values may be shown once.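 1) Cells in 96-well plates. 2) Compound, 48 h, 5 concentrations. 3) Linear interpolation between surrounding doses. 4) Unreached endpoint = highest concentration. GI50 = concentration required for 50% inhibition of growth. At the TGI there is no net growth.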

As to `O=C(O)c1c[nH]c2c(OCc3ccccc3)c3ccccc3c(O)c2c1=O`, the GI50 in experiment [1] is 17 µM; in experiment [2], 15 µM; in experiment [3], 3240 nM; in experiment [4], 14.9 µM; in [5] it was 1860 nM; in experiment [6] it was 23.4 µM. In addition, the GI50 in experiment [7] was 23.7 µM. Also, the TGI is 35 µM in [1]; 28.2 µM in experiment [2]; 11 µM in experiment [3]; 38.7 µM in experiment [4]; 11.8 µM in [5]; 45.6 µM in experiment [6]. In [7], the TGI was 85.6 µM.

Regarding `COC(=O)C1=C(CS(=O)c2ccc([N+](=O)[O-])cc2[N+](=O)[O-])ON(C)C1c1ccccc1` (configuration not stated), the TGI is above 60.8 µM in experiment [1]; above 100 µM in experiment [8]; above 100 µM in experiment [2]; 35 µM in experiment [3]; above 100 µM in experiment [4]; above 100 µM in experiment [5]. Moreover, the results for the TGI in [6], in experiment [9] and in [7] were above 80.7 µM, above 100 µM and above 100 µM, respectively.

Take `CC(=O)c1ccc(NC(=O)C(=O)C(C(=O)c2ccc(Cl)c(Cl)c2)C2OC(=O)c3ccccc32)cc1` (configuration not stated): the TGI in experiment [1] is above 100 µM; in experiment [8], above 100 µM; in [2], 25.8 µM; in [3], 32.6 µM; in [4], 33.5 µM; in experiment [5] it was 42.6 µM. The TGI in experiment [6] was 17.4 µM; in experiment [7], above 100 µM.

Consider `COc1ccc(-c2cc(-c3cc(C)ccc3O)[nH]c(=O)n2)cc1`, for which the TGI in experiment [1], in experiment [8], in [2], in experiment [3], in experiment [4] and in [5] was above 100 µM throughout. The TGI in experiment [6] was 88.6 µM; in experiment [7] it was above 100 µM.

In the case of `Cc1ccc(C(=O)C#Cc2c[nH]c(=O)[nH]c2=O)cc1`, the TGI in [1] amounted to 30.5 µM; in experiment [8] it was 31.4 µM; in experiment [2], 18.5 µM; in [3] it was 15 µM; in [4], 33.8 µM; in experiment [5], 29.8 µM. The TGI is 12.4 µM in [6], 27.6 µM in experiment [9] and 73.6 µM in [7].

As to `COC1=C2C[C@@H](C)C[C@@H](OC)[C@@H](O)[C@H](C)/C=C(\C)[C@@H](OC(N)=O)[C@H](OC)/C=C\C=C(/C)C(=O)NC(=CC1=O)C2=O`, the TGI in experiment [2] was 3.95 µM and 5.44 µM and 1.88 µM; in experiment [3], 1.48 µM and 1.38 µM; in experiment [7], 37.5 µM and 18 µM and 8.19 µM. The GI50 is 20.8 nM and 51 nM and 45.9 nM in experiment [3]; 0.0245 µM in experiment [6].

On to `CCOC(=O)C(=O)Nc1c(C)cccc1C(C)C`, for which the TGI in [1], in [8], in experiment [2], in experiment [4], in experiment [5] and in [9] was above 100 µM each time. Also, the TGI in experiment [7] was above 100 µM.

Consider `COc1cc(Nc2nc3cc(C(F)(F)F)ccc3nc2-c2ccccc2)cc(OC)c1OC`, for which the TGI is 0.0575 µM in [1]; above 100 µM in experiment [8]; above 100 µM in experiment [3]; above 100 µM in experiment [4]; above 100 µM in experiment [5]; 63.8 µM in experiment [6]. Besides, the TGI in [9] and in experiment [7] was above 100 µM throughout.

Take `COc1ccccc1C(N)c1ccccc1` (configuration not stated): the TGI in experiment [8], in experiment [2], in experiment [3], in [4], in [5] and in experiment [6] was above 100 µM in each case. Moreover, the TGI in [7] is above 100 µM.

Turning to `O=NN/C(=C1\Nc2ccc([N+](=O)[O-])cc2NC1=O)C(O)c1ccc([N+](=O)[O-])cc1` (configuration not stated), the TGI in experiment [1], in [2], in experiment [3], in [4], in experiment [5] and in experiment [6] was above 100 µM in each case. In experiment [7], this compound registered a TGI above 100 µM.

As for `c1ccc(CN2CCCCC(Sc3ccccc3)CC2)cc1` (configuration not stated), the TGI is 69.6 µM in [1]; above 100 µM in [8]; 43.9 µM in experiment [2]; 30.6 µM in experiment [3]; 42.5 µM in experiment [4]; above 100 µM in experiment [5]. Further, the results for the TGI in experiment [9] and in [7] were 90.5 µM and above 100 µM, respectively.

Take `COC1OC(COS(=O)(=O)c2ccc(C)cc2)C(O)C(OS(=O)(=O)c2ccc(C)cc2)C1OS(=O)(=O)c1ccc(C)cc1` (configuration not stated): the TGI in experiment [1], in experiment [8], in experiment [2], in experiment [4], in [5] and in [6] was above 100 µM throughout. The TGI in [9] and in experiment [7] was above 100 µM throughout.

Turning to `Cc1c(C(=O)/C=C/c2c(Cl)cccc2Cl)c(=O)n(-c2ccccc2)n1C`, the TGI in experiment [1] was above 100 µM; in [8], above 100 µM; in experiment [2], above 100 µM; in experiment [3], 41.8 µM; in [4], 82.7 µM; in experiment [5], 73.5 µM. Besides, the TGI in experiment [6] was 20.4 µM; in experiment [9], 75 µM; in [7], above 100 µM.

As for `COc1ccc(C(=O)CC(=O)C(=O)Nc2ccc(C)c(C)c2)cc1`, the TGI was above 100 µM in experiment [1]; above 100 µM in experiment [8]; above 64.4 µM in experiment [2]; above 55.7 µM in experiment [3]; above 56.8 µM in experiment [4]; above 100 µM in [5]. The TGI in [6] was 97.9 µM; in experiment [9] it was above 100 µM; in experiment [7], above 100 µM.

`CC(=O)OC1CC2C(C)(C)C(=O)C=C[C@]2(C)C2CCC3(C)C(c4ccoc4)[C@@H](O)[C@H]4O[C@]43[C@]12C` (some centres not stated): the TGI in experiment [1] was 45.6 µM; in experiment [8], above 100 µM; in experiment [2], 51.9 µM; in experiment [3], 31.3 µM; in [4], 36.5 µM; in experiment [5] it was 31.8 µM. For the same compound, the TGI came out at 35.5 µM in [6], 39.6 µM in experiment [9] and 42.5 µM in experiment [7].

On to `NC(=O)Nc1c([N+](=O)[O-])cc(C(F)(F)F)cc1[N+](=O)[O-]`, for which the TGI is above 100 µM in experiment [1]; above 100 µM in experiment [8]; above 100 µM in [2]; above 100 µM in experiment [3]; above 100 µM in [4]; 82.5 µM in [5]. Also, the TGI in [6] and in experiment [9] was above 100 µM each time.

As for `CCCCCCCCCCCCCCCCCC(=O)OCC(COC1OC(CS(=O)(=O)O)C(O)C(O)C1O)OC(=O)CCCCCCCCCCCCCCCCC` (configuration not stated), the TGI in experiment [1], in experiment [8], in experiment [2], in experiment [3], in [4] and in experiment [5] was above 100 µM in each case. Also, the TGI in experiment [6] and in [7] was above 100 µM throughout.

Consider `COC(=O)C1=C(c2ccc3c(c2)OCO3)OC(c2ccc3c(c2)OCO3)C1` (configuration not stated), for which the TGI in experiment [1], in [8], in experiment [2], in experiment [3], in [4] and in [5] was above 100 µM each time. For the same compound, the TGI in experiment [6], in experiment [9] and in [7] was above 100 µM throughout.

On to `O=C1OC(c2ccccc2)=N/C1=C\c1cc(Cl)ccc1Cl`, for which the TGI in experiment [8], in [2], in [4], in experiment [6] and in [9] was above 100 µM each time.

For the compound `CCOC(=O)N[C@@H]1C2CC(=O)C(O2)[C@@H]1OC` (some centres not stated), the TGI in experiment [1], in [8], in [2], in experiment [3], in experiment [4] and in experiment [5] was above 100 µM in each case. For the same compound, the TGI in [6], in experiment [9] and in [7] was above 100 µM in each case.

With `O=C(O)c1cccc2cccc(C(=O)O)c12.[Hg]`, the GI50 is 21.7 µM in [1]; above 100000 nM in [8]; 15.9 µM in experiment [2]; 14700 nM in experiment [3]; 16.4 µM in experiment [4]; 15300 nM in experiment [5]. In addition, the GI50 in experiment [6] was 16.8 µM; in experiment [9], 17.4 µM; in [7], 19.6 µM. Further, the TGI in experiment [1] was 53.8 µM; in experiment [8], above 100 µM; in experiment [2], 29.3 µM; in experiment [3], 27.9 µM; in [4], 31.7 µM; in experiment [5], 30 µM. Also, the figures for the TGI in [6], in experiment [9] and in [7] were 32.3 µM, 31.6 µM and 33.9 µM, respectively.

With `COC(=O)C(Cc1ccccc1)NC(=O)Cn1ccnc1[N+](=O)[O-]` (configuration not stated), the TGI in experiment [1], in [8], in [3], in [4], in experiment [6] and in experiment [9] was above 100 µM each time. The same compound yielded a TGI in [7] above 100 µM.

`CCC[CH2][Sn]1([CH2]CCC)[O]CC(CN2CCOCC2)[O]1` (configuration not stated): the GI50 in [1] is 1.36 µM; in experiment [8] it was 2180 nM; in [2], 8.84 µM; in experiment [3], 2020 nM; in experiment [4] it was 13.6 µM; in [5] it was 2130 nM. In addition, the results for the GI50 in experiment [6], in experiment [9] and in experiment [7] were 1.65 µM, 1.53 µM and 12.3 µM, respectively. Besides, the TGI is 6.51 µM in experiment [1]; 11.9 µM in experiment [8]; 21 µM in experiment [2]; 5.7 µM in experiment [3]; 26.5 µM in experiment [4]; 8.23 µM in experiment [5]. The TGI came to 3.31 µM in experiment [6], 3.66 µM in [9] and 25.8 µM in [7].

With `COc1ccc(C(=O)C(C(=O)C(=O)NC2C3CC4CC(C3)CC2C4)c2ccc(OC)cc2)cc1` (configuration not stated), the TGI in [1], in experiment [8], in [2], in experiment [3], in [4] and in [5] was above 100 µM throughout. Moreover, the TGI in experiment [9] and in [7] was above 100 µM throughout.

For `CCCCCNC(=O)c1c(O)[nH]c(=S)[nH]c1=O`, the TGI in experiment [1], in experiment [2], in [3], in experiment [4], in [5] and in experiment [9] was above 100 µM each time. Also, the TGI in experiment [7] was above 100 µM.

For `CCCc1nc(NC#N)nc(C(=O)NC23CC4CC(CC(C4)C2)C3)c1C`, the TGI in [1], in experiment [8], in [2], in experiment [3], in experiment [4] and in [5] was above 100 µM in each case. Also, the TGI in experiment [6], in experiment [9] and in [7] was above 100 µM throughout.

With `CN(C)C1=NC2=S(SC(Nc3ccccc3)=N2)S1` (configuration not stated), the TGI in experiment [1] was 60.7 µM; in [8], 38.5 µM; in [2], above 100 µM; in experiment [3] it was above 100 µM; in [4] it was above 100 µM; in [6] it was above 100 µM. Besides, the figures for the TGI in experiment [9] and in experiment [7] were above 100 µM and 90.4 µM, respectively.

Take `CC1=NC(C(C)C)C(=O)O1` (configuration not stated): the TGI was above 100 µM in experiment [1]; above 100 µM in experiment [8]; 34.1 µM in experiment [2]; above 100 µM in [4]; above 100 µM in experiment [5]; above 100 µM in experiment [7].

As to `CC1=CC(=O)c2c(C=O)c(O)c(O)c(C(C)C)c2C1=O`, the TGI is 52.9 µM in experiment [1]; 38.5 µM in experiment [2]; 27.6 µM in [3]; above 74.1 µM in experiment [4]; 20.8 µM in [6]; 57.5 µM in [9]. In experiment [7], the TGI is above 100 µM.
